These results are taken from ChEMBL document CHEMBL4043272, “Synthesis and in vitro biological evaluation of new pyrimidines as glucagon-like peptide-1 receptor agonists” (Bioorg Med Chem Lett, 2017).

Holding throughout (type): cell-based
Assay [1] addresses T1, Glucagon-like peptide 1 receptor (Mus musculus) (UniProt O35659).
T1 sequence (whole entry): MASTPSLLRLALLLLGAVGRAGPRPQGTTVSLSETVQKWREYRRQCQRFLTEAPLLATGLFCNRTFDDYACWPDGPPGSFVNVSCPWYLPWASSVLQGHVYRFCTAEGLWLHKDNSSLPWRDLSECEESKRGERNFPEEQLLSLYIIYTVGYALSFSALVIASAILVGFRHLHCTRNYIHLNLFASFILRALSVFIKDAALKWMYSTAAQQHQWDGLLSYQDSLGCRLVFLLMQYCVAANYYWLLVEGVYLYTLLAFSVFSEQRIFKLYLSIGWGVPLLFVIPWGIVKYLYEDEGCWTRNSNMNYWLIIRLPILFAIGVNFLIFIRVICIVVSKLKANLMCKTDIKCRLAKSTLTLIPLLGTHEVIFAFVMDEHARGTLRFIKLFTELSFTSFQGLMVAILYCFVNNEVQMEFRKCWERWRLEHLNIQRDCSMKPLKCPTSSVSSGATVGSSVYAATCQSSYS
The assay is described as follows: Agonist activity at GLP1 receptor in mouse BetaTC6 cells assessed as increase in insulin secretion at 10^-15 to 10^-12 M after 120 mins by sandwich ELISA.

For assay [2], the target named is T1, Glucagon-like peptide 1 receptor (Mus musculus). Briefly: Agonist activity at GLP1 receptor in mouse BetaTC6 cells assessed as increase in glucose-dependent insulin secretion at 10^-15 M after 120 mins by sandwich ELISA. In general terms: In an ELISA, binding on a coated surface is turned into a signal by an enzyme label.
For assay [3] the target is unchanged. The assay is described as follows: Agonist activity at GLP1 receptor in mouse BetaTC6 cells assessed as increase in glucose-dependent insulin secretion at 10^-15 to 10^-9 M after 120 mins by sandwich ELISA.
Assay [4] has the same target. The assay is described as follows: Agonist activity at GLP1 receptor in mouse BetaTC6 cells assessed as increase in insulin secretion at 10^-15 to 10^-9 M after 120 mins by sandwich ELISA.
For assay [5] the target is unchanged. The assay is described as follows: Agonist activity at GLP1 receptor in mouse BetaTC6 cells assessed as increase in glucose-dependent insulin secretion after 120 mins by sandwich ELISA.

Structures are written as SMILES. The source made the active and inactive calls. The calls are words filed in the database; no cut-off is given here.

On to `c1ccc(CNc2ccnc(NC3CCCCCC3)n2)cc1`, for which the result in assay [1] and in assay [2] was Active.
Take `O=C(Nc1nccc(N/N=C/c2ccc(F)cc2)n1)NC1CCCC1`: the outcome in assay [1] was Active. Besides, the result in assay [3] was inactive.
With `Cc1ccc(S(=O)(=O)NC(=O)Nc2ccnc(N)n2)cc1`, the outcome in assay [4] was Active. Besides, the result in assay [5] was inactive.
